{"source": "paper PMC10096453", "about": "“One-Pot Synthesis and Evaluation of Antioxidative Stress and Anticancer Properties of an Active Chromone Derivative” (Molecules, 2023)", "key": {"[1]": {"test_system": "HEK293 cells", "assay": "Protection against H2O2-induced cytotoxicity (MTT)", "assay_type": "cell-based", "conditions": "100 μM; HEK293, 7.5 mM H2O2 30 min", "method": "The synthesized compounds were examined for the ability of the compounds to protect cells exposed to oxidative stress. Six active compounds from the antioxidant test, 2b, 2d, 2e, 2f, 2j, and 3i, were selected to study the ability of oxidative stress protection. The HEK293 cells were treated with 7.5 mM hydrogen peroxide for 30 min; samples and quercetin were added, and cell viability was investigated at 12 and 24 h treatment. The percentage of viable cells in each sample was calculated using the untreated cell as 100% survival (Figure 3).\nFigure 3 Protective effect of synthesized compounds on H2O2-induced cytotoxicity in cultured HEK cells (means ± SD, n = 3). Data (cell viability, measured by the MTT assay) were expressed as a percentage of the control group, which is 100%. The results were calculated from three independent experiments and are shown as mean ± SD. Compared to the H2O2 model group, the p values were calculated using a one-way ANOVA with Tukey (Turkey HSD) multiple comparison analysis; * p < 0.05 at 12 h treatment, # p < 0.05 at 24 h treatment."}, "[2]": {"test_system": "HeLa cells", "assay": "Apoptosis, Annexin V & Dead Cell flow cytometry", "assay_type": "cell-based", "conditions": "IC50 concentration, 24 h", "method": "Examining apoptosis induction by some samples was confirmed by the determination of annexin V (p ≤ 0.05) using the IC50 for 2b, 2e, 2f, 2j, and quercetin in the HeLa cell line (Figure 5a).\nHeLa cells were seeded overnight at 1 × 10^5 cells/1.5 mL/well in a 6-well plate. […] The cells were […] and washed with PBS. The collected cells were diluted with serum-free medium to a suitable volume. The 100 μL of cell suspension was added to 100 μL of Muse^TM Annexin V & Dead Cell reagent and incubated for 20 min at room temperature. Cells were analyzed by flow cytometry (Guava Muse Cell Analyzer, Luminex, Austin, TX USA) with Guava suite software 3.4."}}, "data": [{"smiles": "O=C(c1ccccc1)c1c(-c2ccccc2)oc2c(O)c(O)ccc2c1=O", "note": "[2f, 3-Benzoyl-7,8-dihydroxy-2-phenyl-4H-chromen-4-one]", "values": [{"measurement": "Protection of cells from oxidative stress", "setting": "[1]", "value": "able to protect cells from oxidative stress"}, {"measurement": "Apoptosis induction", "setting": "[2]", "value": "induced apoptosis in tumor cells"}, {"measurement": "Change in dead phase compared to the control", "setting": "[2]", "value": "+5.8%"}, {"measurement": "Change in early apoptosis phase compared to the control", "setting": "[2]", "value": "+6.3%"}, {"measurement": "Change in late apoptosis phase compared to the control", "setting": "[2]", "value": "+1.2%"}, {"measurement": "Change in live phase compared to the control", "setting": "[2]", "value": "−12.1", "unit": "%"}]}, {"smiles": "O=C(Oc1ccc2c(=O)c(C(=O)c3ccccc3)c(-c3ccccc3)oc2c1O)c1ccccc1", "note": "[2j, 3-Benzoyl-8-hydroxy-4-oxo-2-phenyl-4H-chromen-7-yl benzoate]", "values": [{"measurement": "Protection of cells from oxidative stress", "setting": "[1]", "value": "able to protect cells from oxidative stress"}]}]}
